Activity calls are given as the source filed them. No cut-off for these calls is given here.
Target: T1, Estrogen receptor (Homo sapiens) (UniProt P03372)
T1 sequence (whole entry): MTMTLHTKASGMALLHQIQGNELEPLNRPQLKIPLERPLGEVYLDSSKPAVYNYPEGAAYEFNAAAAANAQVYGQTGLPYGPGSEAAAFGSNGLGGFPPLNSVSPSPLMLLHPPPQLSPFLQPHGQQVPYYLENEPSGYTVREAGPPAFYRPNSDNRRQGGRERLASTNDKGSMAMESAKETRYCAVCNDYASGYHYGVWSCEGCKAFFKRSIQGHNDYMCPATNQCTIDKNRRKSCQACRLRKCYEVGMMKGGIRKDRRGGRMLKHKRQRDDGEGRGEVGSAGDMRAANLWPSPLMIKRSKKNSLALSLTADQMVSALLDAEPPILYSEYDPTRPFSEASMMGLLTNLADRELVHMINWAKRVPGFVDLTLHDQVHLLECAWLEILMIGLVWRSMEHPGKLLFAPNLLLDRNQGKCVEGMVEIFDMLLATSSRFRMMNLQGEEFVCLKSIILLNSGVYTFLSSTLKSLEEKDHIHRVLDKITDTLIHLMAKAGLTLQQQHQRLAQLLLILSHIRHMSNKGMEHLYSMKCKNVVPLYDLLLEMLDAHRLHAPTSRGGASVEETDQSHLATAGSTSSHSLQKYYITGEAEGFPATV
Test: Induction of estrogen receptor-mediated compound internalization in human MCF-7 cells at 10 umol by fluorescence microscopy
Format: cell-based
Settings: MCF7

| Activity | Compound |
| --- | --- |
| Active | C=CC1=C(C)c2cc3[nH]c(c4c5nc(cc6[nH]c(cc1n2)c(C)c6CC)C(C)=C5C(=O)C4)[C@@H](CCC(=O)OCCC#C[C@]1(O)CC[C@H]2[C@@H]4CCc5cc(O)ccc5[C@H]4CC[C@@]21C)[C@@H]3C |
| inactive | C=CC1=C(C)c2cc3[nH]c(c4c5nc(cc6[nH]c(cc1n2)c(C)c6CC)C(C)=C5C(=O)C4)[C@@H](CCC(=O)O)[C@@H]3C |
